In the assay the test system is BDF1 mice, P388 leukemia ip, median survival T/C. In words: NCI In Vivo Anticancer Drug Screen. Data for tumor model P388 Leukemia (intraperitoneal) in B6D2F1 (BDF1) mice. The conditions noted are these: endpoint: median survival time, higher = longer survival. In short, it runs like this: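 Each value expresses how treatment altered survival: treated-mouse outcome over vehicle-mouse outcome, both groups bearing the transplanted tumour.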

Setting [1] is: dose: 100.0 mg/kg/injection, schedule: Q01DX009 (ip), vehicle: saline.
[2] abbreviates: dose: 200.0 mg/kg/injection, schedule: Q01DX009 (ip), vehicle: saline.
The mark [3] stands for this setting: dose: 12.5 mg/kg/injection, schedule: Q01DX009 (ip), vehicle: other.
The mark [4] stands for this setting: dose: 25.0 mg/kg/injection, schedule: Q01DX009 (ip), vehicle: other.
Setting [5] is: dose: 50.0 mg/kg/injection, schedule: Q01DX009 (ip), vehicle: saline with Tween-80.
Setting [6] is: dose: 100.0 mg/kg/injection, schedule: Q01DX009 (ip), vehicle: saline with Tween-80.
[7] abbreviates: dose: 200.0 mg/kg/injection, schedule: Q01DX009 (ip), vehicle: saline with Tween-80.
[8] abbreviates: dose: 400.0 mg/kg/injection, schedule: Q01DX009 (ip), vehicle: saline with Tween-80.
The mark [9] stands for this setting: dose: 3.12 mg/kg/injection, schedule: Q01DX009 (ip), vehicle: saline with Tween-80.
Where [10] appears, read: dose: 25.0 mg/kg/injection, schedule: Q01DX009 (ip), vehicle: saline with Tween-80.
[11] abbreviates: dose: 50.0 mg/kg/injection, schedule: Q04DX003 (ip), vehicle: saline with Tween-80.
Where [12] appears, read: dose: 100.0 mg/kg/injection, schedule: Q04DX003 (ip), vehicle: saline with Tween-80.
Setting [13] is: dose: 200.0 mg/kg/injection, schedule: Q04DX003 (ip), vehicle: saline with Tween-80.
The mark [14] stands for this setting: dose: 400.0 mg/kg/injection, schedule: Q04DX003 (ip), vehicle: saline with Tween-80.
Where [15] appears, read: dose: 6.25 mg/kg/injection, schedule: Q01DX009 (ip), vehicle: Klucel (hydroxypropylcellulose) (HPC).
Where [16] appears, read: dose: 12.5 mg/kg/injection, schedule: Q01DX009 (ip), vehicle: Klucel (hydroxypropylcellulose) (HPC).
Setting [17] is: dose: 25.0 mg/kg/injection, schedule: Q01DX009 (ip), vehicle: Klucel (hydroxypropylcellulose) (HPC).

The record followed here is PubChem BioAssay AID328 (DTP/NCI, 2004).

Where “and” joins values, the source holds several entries; their conditions need not be identical. Identical values can stand only once. Inconclusive results and toxic doses are left out.

`CC(CN1CC(=O)NC(=O)C1)N1CC(=O)NC(=O)C1.[Cl-].[Pt+4]` (stereo unspecified): the T/C by setting is: (dose: 12.5 mg/kg/injection, schedule: Q01DX009 (ip), vehicle: saline) 100 % of control; (dose: 25.0 mg/kg/injection, schedule: Q01DX009 (ip), vehicle: saline) 95 % of control and 118 % of control; (dose: 50.0 mg/kg/injection, schedule: Q01DX009 (ip), vehicle: saline) 97 % of control; under setting [1], 91 % of control; under setting [2], 105 % of control.

Consider `O=c1cc(-c2cccnc2)oc2c1ccc1ccccc12`, for which the T/C was 89 % of control under setting [3]; 91 % of control under setting [4]; 95 % of control (dose: 50.0 mg/kg/injection, schedule: Q01DX009 (ip), vehicle: other); 91 % of control (dose: 100.0 mg/kg/injection, schedule: Q01DX009 (ip), vehicle: other); 87 % of control (dose: 200.0 mg/kg/injection, schedule: Q01DX009 (ip), vehicle: other).

As for `O=c1[nH]nc(NCCCO)c2ccccc12`, the T/C runs as follows: under setting [5], 112 % of control; under setting [6], 87 % of control; under setting [7], 96 % of control.

In the case of `OC(CCl)C(O)C(O)C(O)CCl` (stereo unspecified), the T/C was 100 % of control under setting [6], 113 % of control under setting [7] and 100 % of control under setting [8].

Regarding `CN(C)C(=O)c1cccc(NCc2ccc3nc(N)nc(N)c3c2)c1`, the T/C is, setting by setting: under setting [9], 108 % of control; (dose: 6.25 mg/kg/injection, schedule: Q01DX009 (ip), vehicle: saline with Tween-80) 99 % of control; (dose: 12.5 mg/kg/injection, schedule: Q01DX009 (ip), vehicle: saline with Tween-80) 106 % of control; under setting [10], 99 % of control; under setting [5], 95 % of control and 108 % of control; under setting [11], 100 % of control. Besides, the T/C is 91 % of control under setting [6]; 100 % of control under setting [12]; 101 % of control under setting [7]; 104 % of control under setting [13]; 94 % of control under setting [8]; 102 % of control under setting [14].

With `CC1=C(C#N)C(C)(C)C(C#N)=C(C)N1C`, the T/C was 88 % of control (dose: 25.0 mg/kg/injection, schedule: Q01DX009 (ip), vehicle: distilled water + Tween-80); 100 % of control (dose: 50.0 mg/kg/injection, schedule: Q01DX009 (ip), vehicle: distilled water + Tween-80); 104 % of control (dose: 100.0 mg/kg/injection, schedule: Q01DX009 (ip), vehicle: distilled water + Tween-80).

Take `CC(=O)[O][Pb]([CH2]C(C)C)([CH2]C(C)C)[CH2]C(C)C`: the T/C is 107 % of control (dose: 0.75 mg/kg/injection, schedule: Q01DX009 (ip), vehicle: Klucel (hydroxypropylcellulose) (HPC)); 109 % of control (dose: 1.5 mg/kg/injection, schedule: Q01DX009 (ip), vehicle: Klucel (hydroxypropylcellulose) (HPC)); 105 % of control (dose: 3.0 mg/kg/injection, schedule: Q01DX009 (ip), vehicle: Klucel (hydroxypropylcellulose) (HPC)); 107 % of control (dose: 6.0 mg/kg/injection, schedule: Q01DX009 (ip), vehicle: Klucel (hydroxypropylcellulose) (HPC)); 107 % of control (dose: 12.0 mg/kg/injection, schedule: Q01DX009 (ip), vehicle: Klucel (hydroxypropylcellulose) (HPC)).

For `CCOC(=O)c1c(NC(=O)C(F)(F)F)[nH]c(SSc2[nH]c(NC(=O)C(F)(F)F)c(C(=O)OCC)c2C(=O)OCC)c1C(=O)OCC`, the T/C is 111 % of control (dose: 1.0 mg/kg/injection, schedule: Q01DX009 (ip), vehicle: water); 90 % of control (dose: 2.0 mg/kg/injection, schedule: Q01DX009 (ip), vehicle: water); 104 % of control (dose: 4.0 mg/kg/injection, schedule: Q01DX009 (ip), vehicle: water); 104 % of control (dose: 8.0 mg/kg/injection, schedule: Q01DX009 (ip), vehicle: water); 106 % of control under setting [11]; 117 % of control under setting [12]. Moreover, the T/C under setting [13] is 106 % of control.

As to `CC(Br)C(=O)NC(Cc1ccccc1)C(=O)O` (stereo unspecified), the T/C is, setting by setting: under setting [1], 95 % of control; (dose: 100.0 mg/kg/injection, schedule: Q04DX003 (ip), vehicle: alcohol) 100 % of control; under setting [12], 118 % of control; under setting [2], 100 % of control; (dose: 200.0 mg/kg/injection, schedule: Q04DX003 (ip), vehicle: alcohol) 104 % of control; under setting [13], 100 % of control. In addition, the T/C (dose: 400.0 mg/kg/injection, schedule: Q01DX009 (ip), vehicle: saline) is 104 % of control; the T/C (dose: 400.0 mg/kg/injection, schedule: Q04DX003 (ip), vehicle: alcohol) is 109 % of control; the T/C under setting [14] was 109 % of control.

Regarding `C[n+]1ccc2cc(N)c3c4ccccc4sc3c2c1`, the T/C was 110 % of control and 119 % of control under setting [9]; 116 % of control (dose: 3.13 mg/kg/injection, schedule: Q01DX009 (ip), vehicle: Klucel (hydroxypropylcellulose) (HPC)); 123 % of control under setting [15]; 105 % of control (dose: 6.25 mg/kg/injection, schedule: Q04DX003 (ip), vehicle: saline with Tween-80); 156 % of control under setting [16]; 112 % of control (dose: 12.5 mg/kg/injection, schedule: Q04DX003 (ip), vehicle: saline with Tween-80). The T/C under setting [17] was 170 % of control and 184 % of control; the T/C under setting [10] was 172 % of control; the T/C (dose: 25.0 mg/kg/injection, schedule: Q04DX003 (ip), vehicle: saline with Tween-80) is 112 % of control.

On to `O=[N+]([O-])c1ccc(NS(=O)(=O)c2cc(Cl)ccc2Cl)c([N+](=O)[O-])c1`, for which the T/C under setting [5] is 105 % of control, the T/C under setting [6] was 102 % of control and the T/C under setting [7] is 110 % of control.

Turning to `O=C(C=C(C(F)(F)F)C(F)(F)F)c1ccc(F)cc1`, the T/C under setting [15] was 101 % of control; the T/C (dose: 6.25 mg/kg/injection, schedule: Q01DX009 (ip), vehicle: other) is 100 % of control; the T/C under setting [16] was 105 % of control; the T/C under setting [3] is 109 % of control; the T/C (dose: 16.5 mg/kg/injection, schedule: Q01DX009 (ip), vehicle: other) is 113 % of control; the T/C under setting [17] is 118 % of control. In addition, the T/C under setting [4] is 118 % of control.
